Test results: ChEMBL document CHEMBL5096163, “Current status in the discovery of dual BET/HDAC inhibitors” (Bioorg Med Chem Lett, 2021)

Assays:
[1] = target: Histone deacetylase 3 (Homo sapiens, UniProt O15379); assay: Inhibition of human recombinant HDAC3 using Boc-Lys(Ac)-AMC fluorogenic substrate measured after 60 mins by fluorescence assay
[2] = tested on: U-937; assay: Cytotoxicity against human U-937 cells assessed as reduction in cell viability at 3 uM incubated for 24 hrs by MTT assay relative to control; assay type: functional
[3] = target: Histone deacetylase 1 (Homo sapiens) (UniProt Q13547); assay: Inhibition of HDAC1 (unknown origin) at 10 uM relative to control
Sequence of Histone deacetylase 1 (Homo sapiens) (Q13547 whole entry): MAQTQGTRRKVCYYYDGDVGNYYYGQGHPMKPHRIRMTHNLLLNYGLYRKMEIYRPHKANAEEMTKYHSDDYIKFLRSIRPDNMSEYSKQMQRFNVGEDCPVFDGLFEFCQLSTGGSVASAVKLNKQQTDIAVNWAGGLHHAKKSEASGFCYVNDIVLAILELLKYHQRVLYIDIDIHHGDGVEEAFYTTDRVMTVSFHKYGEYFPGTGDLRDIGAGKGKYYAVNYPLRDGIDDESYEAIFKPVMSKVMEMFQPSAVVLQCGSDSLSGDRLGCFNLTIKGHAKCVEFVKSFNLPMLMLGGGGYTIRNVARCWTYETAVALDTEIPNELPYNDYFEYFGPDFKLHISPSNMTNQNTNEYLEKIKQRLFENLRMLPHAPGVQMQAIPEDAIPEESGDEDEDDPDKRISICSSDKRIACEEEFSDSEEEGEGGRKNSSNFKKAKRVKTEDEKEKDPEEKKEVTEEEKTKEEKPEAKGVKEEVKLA

Sequence of Histone deacetylase 3 (O15379 whole entry): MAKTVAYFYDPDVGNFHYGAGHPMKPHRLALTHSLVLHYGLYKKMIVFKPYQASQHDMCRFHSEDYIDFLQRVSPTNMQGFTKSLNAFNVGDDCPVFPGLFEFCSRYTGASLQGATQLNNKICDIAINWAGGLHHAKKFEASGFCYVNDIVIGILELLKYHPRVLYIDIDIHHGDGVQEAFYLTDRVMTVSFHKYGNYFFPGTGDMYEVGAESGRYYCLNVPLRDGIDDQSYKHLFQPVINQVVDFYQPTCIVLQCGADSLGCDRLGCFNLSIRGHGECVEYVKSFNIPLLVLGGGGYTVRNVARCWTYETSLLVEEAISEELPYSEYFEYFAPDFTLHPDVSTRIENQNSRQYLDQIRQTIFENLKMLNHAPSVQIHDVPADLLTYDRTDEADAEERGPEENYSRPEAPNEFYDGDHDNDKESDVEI

Row | SMILES | IC50 [1] [nM] | Activity [2] [%] | inhibition [3] [%]
1 | COC(c1c(F)cccc1Cl)c1c[nH]c2ncc(-c3c(C)noc3C)cc12 (stereo not given) | 5 |  | 
2 | Cc1sc2c(c1C)C(c1ccc(Cl)cc1)=N[C@@H](CC(=O)NCCCC(=O)Nc1ccccc1N)c1nnc(C)n1-2 |  | 16.12 | 
3 | O=C(CCCCCCn1cc(Cc2ccccc2)c2cccnc21)NO | 60 |  | 
4 | Cc1noc(C)c1-c1cnc2c(c1)c(Cc1ccc(F)cc1)cn2CCCCCCC(=O)NO | 5 |  | 88
